{"source": "patent US20040242457A1", "about": "“Use of anti-glaucoma drugs to treat visual defects associated with the use of a GABAergic agent” (priority 2003, published 2004)", "origin": "cited, not measured here", "conditions": "reports from the literature", "data": [{"smiles": "C=CC(N)CCC(=O)O", "note": "(racemic) [GVG, 4-amino-hex-5-enoic acid]", "values": [{"measurement": "patients treated with GVG who develop visual field defects (VFDs)", "value": "25-50%"}]}]}
